Measured values as given in patent publication US12540148B2, “Lipophosphonoxins, their preparation and use” (USTAV ORGANICKE CHEMIE A BIOCHEMIE AV CR, V. V. I., priority 2019, dated 2026).
Values after ≈ are worked out from the molar mass of the structure shown. Where a name gives a salt, the structure may show the parent alone. Read-outs that look alike come from different tables or passages of the source.

How the values were obtained:
Assay in all cases: MIC, microdilution method
Type in all cases: cell-based
[1] = tested on: Enterobacter kobei 3683
Description: (§1) Disposable microtiter plates are used for testing. Samples are dissolved in infusion medium from brain and heart (BHI, HiMedia Laboraties Pvt. Ltd., Czech Republic) and Mueller-Hinton broth (HiMedia Laboraties, see above) to a final concentration ranging from 200 μg/ml to 1.5625 μg/ml. Plates are inoculated with a standard amount of test bacteria—the density of the inoculum in the well corresponds to 10^5-6 CFU/ml (colony forming units/ml, i.e. the number of viable bacterial cells/ml). MIC values are read after 24/48 hours of incubation at 37° C. as the minimum inhibitory concentration of the test substance at which bacterial growth is inhibited. The minimum bactericidal concentration (MBC) is characterized as the minimum concentration of the sample required to achieve irreversible inhibition, i.e. to kill the bacteria after a defined incubation period. MBC is determined by the inoculation method. Using an applicator, 10 μl from the well of a microtiter plate with a defined concentration of the test substance is taken to inoculate the surface of blood agar (Trios, Czech Republic). MBC is determined as the lowest concentration that inhibits the visible growth of the bacterium used on agar.

[2] = tested on: Enterococcus faecalis ATCC 29212 = CCM 4224
Description: as §1

[3] = tested on: Enterococcus faecium 419/ANA
Description: as §1

[4] = tested on: Escherichia coli ATCC 25922 = CCM 3954
Description: as §1

[5] = tested on: Escherichia coli CE5556
Description: as §1

[6] = tested on: Pseudomonas aeruginosa ATCC 27853 = CCM 3955
Description: as §1

[7] = tested on: Pseudomonas aeruginosa R
Description: as §1

[8] = tested on: Staphylococcus aureus 4591
Description: as §1

[9] = tested on: Staphylococcus aureus ATCC 29213 = CCM 4223
Description: as §1

[10] = tested on: Staphylococcus epidermidis CCM 7221
Description: as §1

[11] = tested on: Candida albicans ATCC 90028 = CCM 8161
[12] = Escherichia coli, 24/48 hours at 37° C.
[13] = Staphylococcus epidermidis, CCM7221
[14] = Enterobacter kobei, 3683, 24/48 hours at 37° C., read-out: MIC
[15] = Enterococcus faecalis, 24/48 hours at 37° C., read-out: MIC
[16] = Enterococcus faecium, 419/ANA, 24/48 hours at 37° C., read-out: MIC
[17] = Escherichia coli, 24/48 hours at 37° C., read-out: MIC
[18] = Escherichia coli, CE5556, 24/48 hours at 37° C., read-out: MIC
[19] = Pseudomonas aeruginosa, 24/48 hours at 37° C., read-out: MIC
[20] = Staphylococcus aureus, 4591, 24/48 hours at 37° C., read-out: MIC
[21] = Staphylococcus aureus, 24/48 hours at 37° C., read-out: MIC
[22] = Staphylococcus epidermidis, CCM7221, 24/48 hours at 37° C., read-out: MIC
[23] = Candida albicans, 24/48 hours at 37° C., read-out: MIC

| Compound | MIC ([1]; Enterobacter kobei, 3683) | MIC ([2]; Enterococcus faecalis) | MIC ([3]; Enterococcus faecium, 419/ANA) | MIC [4, 12] | MIC ([5]; Escherichia coli, CE5556) | MIC ([6]; Pseudomonas aeruginosa) | MIC ([7]; Pseudomonas aeruginosa) | MIC ([8]; Staphylococcus aureus, 4591) | MIC ([9]; Staphylococcus aureus) | MIC [10, 13] | MIC ([11]; Candida albicans) | other results |
| --- | --- | --- | --- | --- | --- | --- | --- | --- | --- | --- | --- | --- |
| Hexan-1,8-diyl dihexyl bis((2-(bis(3-aminopropyl)amino)ethyl)phosphonate) hexahydrochloride [Example 35] | – | – | – | – | – | – | – | – | – | – | – | MIC ([1]; 24/48 hours at 37° C.): 2 µg/mL; MIC ([2]; 24/48 hours at 37° C.): 1 µg/mL; MIC ([3]; 24/48 hours at 37° C.): 8 µg/mL; MIC ([4]; 24/48 hours at 37° C.): 0.5 µg/mL; MIC ([5]; 24/48 hours at 37° C.): 1 µg/mL; MIC ([6]; 24/48 hours at 37° C.): 2 µg/mL; MIC ([7]; 24/48 hours at 37° C.): 2 µg/mL; MIC ([8]; 24/48 hours at 37° C.): 1 µg/mL; MIC ([9]; 24/48 hours at 37° C.): 0.5 µg/mL; MIC ([10]; 24/48 hours at 37° C.): 0.5 µg/mL; MIC ([11]; 24/48 hours at 37° C.): 16 µg/mL |
| CCCCOP(=O)(CCN(CCN)CCN)OCCCCCCCCCCOP(=O)(CCN(CCN)CCN)OCCCC.Cl.Cl.Cl.Cl.Cl.Cl (centres unmarked) [Example 56, Dibutyl decane-1,10-diyl bis((2-(bis(2-aminoethyl)amino)ethyl)phosphonate) hexahydrochloride] | 16 µg/mL | 2 µg/mL | 4 µg/mL | 4 µg/mL | 4 µg/mL | 4 µg/mL | 8 µg/mL | 4 µg/mL | 2 µg/mL | 4 µg/mL | 4 µg/mL | – |
| C=CP(=O)(OCCCCCCCCCCCCOP(=O)(C=C)OCC(C)C)OCC(C)C (centres unmarked) [Example 34, Diisobutyl dodecane-1,12-diyl bis(vinylphosphonate)] | – | – | – | – | – | – | – | – | – | – | – | MIC [1, 14]: > 128 µg/mL; MIC [2, 15]: 128 µg/mL (≈ 259 µM); MIC [3, 16]: > 128 µg/mL; MIC [4, 17]: 32 µg/mL (≈ 64.7 µM); MIC [5, 18]: 128 µg/mL (≈ 259 µM); MIC [6, 19]: > 128 µg/mL; MIC [7, 19]: > 128 µg/mL; MIC [8, 20]: 16 µg/mL (≈ 32.4 µM); MIC [9, 21]: 8 µg/mL (≈ 16.2 µM); MIC [10, 22]: 4 µg/mL (≈ 8.09 µM); MIC [11, 23]: 128 µg/mL (≈ 259 µM) |
| CCCCCOP(=O)(CCN(CCCN)CCCN)OCCCCCCCCCCCCCCOP(=O)(CCN(CCCN)CCCN)OCCCCC.Cl.Cl.Cl.Cl.Cl.Cl (centres unmarked) [Example 53, Tetradecane-1,14-diyl dipentyl bis((2-(bis(3-aminopropyl)amino)ethyl)-phosphonate) hexahydrochloride] | 2 µg/mL | 1 µg/mL | 2 µg/mL | 1 µg/mL | 1 µg/mL | 2 µg/mL | 4 µg/mL | 1 µg/mL | 0.5 µg/mL | 0.5 µg/mL | 2 µg/mL | – |
| CCCCCOP(=O)(CCN(CCCN)CCCN)OCCCCCCCCCCOP(=O)(CCN(CCCN)CCCN)OCCCCC.Cl.Cl.Cl.Cl.Cl.Cl (centres unmarked) [Example 42, Decane-1,10-diyl dipentyl bis((2-(bis(3-aminopropyl)amino)-ethyl)phosphonate) hexahydrochloride] | 64 µg/mL | 4 µg/mL | 32 µg/mL | 2 µg/mL | 8 µg/mL | 4 µg/mL | 8 µg/mL | 1 µg/mL | 0.5 µg/mL | 0.5 µg/mL | 16 µg/mL | – |
| CCCCCCCCCCOP(=O)(CCN(CCCN)CCCN)OCCCCCCCCCCOP(=O)(CCN(CCCN)CCCN)OCCCCCCCCCC (centres unmarked) [Example 45, Decan-1,10-diyl didecyl bis((2-(bis(3-aminopropyl)amino)ethyl)-phosphonate) tetrahydrochloride] | > 128 µg/mL | 32 µg/mL | 128 µg/mL | – | > 128 µg/mL | 32 µg/mL | 16 µg/mL | 4 µg/mL | 4 µg/mL | 1 µg/mL | 64 µg/mL | MIC ([4]; Escherichia coli): > 128 µg/mL |
| CCCCCCCCCCCCCCOP(=O)(CCN(CCCNC(=N)N)CCCNC(=N)N)OC[C@H]1O[C@@H](n2ccc(=O)[nH]c2=O)C(O)C1O (some centres unmarked) [DR7030, reference compound] | – | – | – | – | – | – | – | – | – | – | – | MIC ([4]; Escherichia coli, 0% BSA, read-out: MIC): 2 µg/mL (≈ 2.68 µM); MIC ([4]; Escherichia coli, 4% BSA, read-out: MIC): > 200 µg/mL; MIC ([9]; Staphylococcus aureus, 0% BSA, read-out: MIC): 2 µg/mL (≈ 2.68 µM); MIC ([9]; Staphylococcus aureus, 4% BSA, read-out: MIC): > 200 µg/mL |
| CCCCOP(=O)(CCN(CCCN)CCCN)OCCCCCCCCCCCCCCOP(=O)(CCN(CCCN)CCCN)OCCCC.Cl.Cl.Cl.Cl.Cl.Cl (centres unmarked) [Example 52, Dibutyl tetradecane-1,14-diyl bis((2-(bis(3-aminopropyl)amino)ethyl)phosphonate) hexahydrochloride] | 8 µg/mL | 1 µg/mL | 2 µg/mL | 2 µg/mL | 2 µg/mL | 4 µg/mL | 2 µg/mL | 1 µg/mL | 1 µg/mL | 0.5 µg/mL | 4 µg/mL | – |
| CCCCOP(=O)(CCN(CCCN)CCCN)OCCCCCCCCCCOP(=O)(CCN(CCCN)CCCN)OCCCC.Cl.Cl.Cl.Cl.Cl.Cl (centres unmarked) [Example 41, Dibutyl decane-1,10-diyl bis((2-(bis(3-aminopropyl)amino)ethyl)phosphonate) hexahydrochloride] | > 128 µg/mL | 32 µg/mL | 128 µg/mL | 64 µg/mL | 128 µg/mL | 16 µg/mL | 8 µg/mL | 2 µg/mL | 2 µg/mL | 1 µg/mL | 64 µg/mL | – |
| Hexan-1,8-diyl dioctyl bis((2-(bis(3-aminopropyl)amino)ethyl)phosphonate) hexahydrochloride [Example 36] | – | – | – | – | – | – | – | – | – | – | – | MIC ([1]; 24/48 hours at 37° C.): >128 µg/mL; MIC ([2]; 24/48 hours at 37° C.): >128 µg/mL; MIC ([3]; 24/48 hours at 37° C.): >128 µg/mL; MIC ([4]; 24/48 hours at 37° C.): 128 µg/mL; MIC ([5]; 24/48 hours at 37° C.): >128 µg/mL; MIC ([6]; 24/48 hours at 37° C.): >128 µg/mL; MIC ([7]; 24/48 hours at 37° C.): 128 µg/mL; MIC ([8]; 24/48 hours at 37° C.): 8 µg/mL; MIC ([9]; 24/48 hours at 37° C.): 16 µg/mL; MIC ([10]; 24/48 hours at 37° C.): 4 µg/mL; MIC ([11]; 24/48 hours at 37° C.): 128 µg/mL |
| C=CP(=O)(OCCCCCCCCCCOP(=O)(C=C)OCC(C)C)OCC(C)C (centres unmarked) [Example 39, Decane-1,10-diyl diisobutyl bis(vinylphosphonate)] | – | – | – | – | – | – | – | – | – | – | – | MIC [1, 14]: > 128 µg/mL; MIC [2, 15]: 64 µg/mL (≈ 137 µM); MIC [3, 16]: 128 µg/mL (≈ 274 µM); MIC [4, 17]: 128 µg/mL (≈ 274 µM); MIC [5, 18]: 128 µg/mL (≈ 274 µM); MIC [6, 19]: 128 µg/mL (≈ 274 µM); MIC [7, 19]: 64 µg/mL (≈ 137 µM); MIC [8, 20]: 16 µg/mL (≈ 34.3 µM); MIC [9, 21]: 32 µg/mL (≈ 68.6 µM); MIC [10, 22]: 8 µg/mL (≈ 17.1 µM); MIC [11, 23]: > 128 µg/mL |
| CCCCCOP(=O)(CCN(CCCN)CCCN)OCCCCCCCCOP(=O)(CCN(CCCN)CCCN)OCCCCC.Cl.Cl.Cl.Cl.Cl.Cl (centres unmarked) [Example 37, Octane-1,8-diyl dipentyl bis((2-(bis(3-aminopropyl)amino)-ethyl)phosphonate) hexahydrochloride] | > 128 µg/mL | 16 µg/mL | > 128 µg/mL | 2 µg/mL | 8 µg/mL | 16 µg/mL | 64 µg/mL | 2 µg/mL | 1 µg/mL | 0.5 µg/mL | 32 µg/mL | MIC ([4]; Escherichia coli, 0% BSA): 2 µg/mL; MIC ([4]; Escherichia coli, 4% BSA): 4 µg/mL; MIC ([9]; 4% BSA): 1 µg/mL; MIC ([9]; 24/48 hours at 37° C.): 1 µg/mL |
| CCCCCCOP(=O)(CCN(CCCN)CCCN)OCCCCCCCCCCOP(=O)(CCN(CCCN)CCCN)OCCCCCC.Cl.Cl.Cl.Cl (centres unmarked) [Example 43, Decane-1,10-diyl dihexyl bis((2-(bis(3-aminopropyl)amino)-ethyl)phosphonate) tetrahydrochloride] | 1 µg/mL | 0.5 µg/mL | 1 µg/mL | 0.5 µg/mL | 1 µg/mL | 1 µg/mL | 1 µg/mL | 0.5 µg/mL | 0.5 µg/mL | 0.5 µg/mL | 1 µg/mL | – |
